Like-named read-outs stand apart in the source and are kept apart here.
Tests used:
Type in all cases: cell-based
[1] = biological target: T-type calcium channel (Homo sapiens, UniProt O95180); experiment: T-type channel blocking, FLIPR data (Table 6)
Description: (§1) Another method, high-throughput spectrophotometric assay, utilizes loading of the cell lines with a fluorescent dye sensitive to intracellular calcium concentration and subsequent examination of the effects of compounds on the ability of depolarization by potassium chloride or other means to alter intracellular calcium levels.

[2] = biological target: T1, CAv1.2 (Homo sapiens, UniProt Q13936); experiment: L-type (CAv1.2) channel blocking, FLIPR data (Table 6)
[3] = biological target: Human Cav 2.2 channels (Homo sapiens, UniProt Q00975); experiment: Fluorescent assay for CaV2.2 channels using potassium depolarization (VIPR/FLIPR); conditions: FLIPR data
Procedure, shortened: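 Fluo-4 calcium fluorescence (480/535 nm) was recorded on VIPR or FLIPR after depolarization to 70 mM final potassium. Before this, cells were preincubated 30 min at 25 °C with compound in 4–30 mM potassium, so that state-dependent block could be assessed; the cells were HEK293 coexpressing Cav2.2, α2δ, β and Kir2.3.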

[4] = biological target: T1, CAv1.2; experiment: FLIPR data, CAv1.2 channel blocking (Table 6); conditions: for CAv1.2 IC50 Ratio closed/inact.: ratio closed/inactivated IC50
[5] = biological target: T-type calcium channel (Homo sapiens, UniProt O43497); experiment: T-type channel blocking, FLIPR data (Table 6); conditions: CAv3.1
Chain of T-type calcium channel (Homo sapiens, UniProt O43497) (O43497 whole entry): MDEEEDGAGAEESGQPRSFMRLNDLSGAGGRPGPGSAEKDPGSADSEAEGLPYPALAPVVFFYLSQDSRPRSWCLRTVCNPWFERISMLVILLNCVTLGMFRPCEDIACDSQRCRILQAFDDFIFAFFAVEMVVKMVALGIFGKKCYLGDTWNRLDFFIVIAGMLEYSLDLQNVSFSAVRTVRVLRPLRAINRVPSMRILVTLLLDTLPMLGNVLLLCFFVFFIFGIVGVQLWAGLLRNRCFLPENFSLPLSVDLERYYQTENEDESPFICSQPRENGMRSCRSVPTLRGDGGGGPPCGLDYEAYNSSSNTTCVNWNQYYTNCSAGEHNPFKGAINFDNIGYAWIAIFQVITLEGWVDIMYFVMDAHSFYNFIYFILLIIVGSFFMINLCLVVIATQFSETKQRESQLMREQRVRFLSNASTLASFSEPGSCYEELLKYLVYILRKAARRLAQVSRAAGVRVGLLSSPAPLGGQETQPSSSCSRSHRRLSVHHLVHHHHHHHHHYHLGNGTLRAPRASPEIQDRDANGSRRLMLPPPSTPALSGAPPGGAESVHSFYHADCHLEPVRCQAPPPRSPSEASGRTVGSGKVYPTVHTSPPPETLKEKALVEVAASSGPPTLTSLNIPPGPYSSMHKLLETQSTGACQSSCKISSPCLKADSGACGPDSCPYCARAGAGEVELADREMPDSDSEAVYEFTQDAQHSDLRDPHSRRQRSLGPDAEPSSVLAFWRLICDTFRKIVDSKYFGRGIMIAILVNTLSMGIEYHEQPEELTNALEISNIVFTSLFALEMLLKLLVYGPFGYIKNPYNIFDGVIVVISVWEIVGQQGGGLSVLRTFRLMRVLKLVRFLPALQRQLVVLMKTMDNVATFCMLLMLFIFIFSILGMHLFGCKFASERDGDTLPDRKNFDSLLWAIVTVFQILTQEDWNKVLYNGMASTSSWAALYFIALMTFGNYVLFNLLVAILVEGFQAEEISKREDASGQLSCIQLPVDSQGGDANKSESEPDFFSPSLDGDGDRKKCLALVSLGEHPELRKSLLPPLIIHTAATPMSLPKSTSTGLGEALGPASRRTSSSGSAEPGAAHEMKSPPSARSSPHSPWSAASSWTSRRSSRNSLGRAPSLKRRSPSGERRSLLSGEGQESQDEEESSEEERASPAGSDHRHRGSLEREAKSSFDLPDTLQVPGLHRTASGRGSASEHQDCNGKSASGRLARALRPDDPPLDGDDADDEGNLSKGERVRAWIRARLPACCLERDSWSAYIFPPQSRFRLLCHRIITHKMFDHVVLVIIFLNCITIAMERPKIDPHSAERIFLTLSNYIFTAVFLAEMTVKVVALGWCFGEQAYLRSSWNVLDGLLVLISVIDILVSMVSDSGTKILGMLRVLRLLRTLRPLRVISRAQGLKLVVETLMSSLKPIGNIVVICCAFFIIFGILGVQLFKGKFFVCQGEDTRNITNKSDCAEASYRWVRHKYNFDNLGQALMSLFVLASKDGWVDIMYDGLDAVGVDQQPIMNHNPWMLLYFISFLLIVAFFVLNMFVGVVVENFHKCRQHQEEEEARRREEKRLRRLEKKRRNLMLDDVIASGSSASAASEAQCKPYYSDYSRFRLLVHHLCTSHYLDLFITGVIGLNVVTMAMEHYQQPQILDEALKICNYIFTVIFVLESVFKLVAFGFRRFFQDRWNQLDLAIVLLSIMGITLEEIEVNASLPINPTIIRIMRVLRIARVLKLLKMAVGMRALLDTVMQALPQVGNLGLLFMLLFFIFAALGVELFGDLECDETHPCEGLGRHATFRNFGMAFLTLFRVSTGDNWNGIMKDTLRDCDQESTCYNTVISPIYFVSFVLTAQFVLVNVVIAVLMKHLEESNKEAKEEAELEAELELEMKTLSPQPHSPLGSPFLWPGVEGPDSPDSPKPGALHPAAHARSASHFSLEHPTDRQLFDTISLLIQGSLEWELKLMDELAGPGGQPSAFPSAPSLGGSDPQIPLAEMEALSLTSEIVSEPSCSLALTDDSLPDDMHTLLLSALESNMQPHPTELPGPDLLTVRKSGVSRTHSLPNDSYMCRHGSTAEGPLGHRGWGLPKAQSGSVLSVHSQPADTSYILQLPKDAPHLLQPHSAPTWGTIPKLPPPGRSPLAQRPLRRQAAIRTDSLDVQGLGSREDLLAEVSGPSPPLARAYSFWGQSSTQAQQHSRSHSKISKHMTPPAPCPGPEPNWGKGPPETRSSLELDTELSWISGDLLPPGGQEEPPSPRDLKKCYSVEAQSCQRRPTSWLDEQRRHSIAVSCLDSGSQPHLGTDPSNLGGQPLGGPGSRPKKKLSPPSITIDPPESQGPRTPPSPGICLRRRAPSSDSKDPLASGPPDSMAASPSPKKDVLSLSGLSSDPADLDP
Description: as §1

[6] = CAv3.2, inactivated state, read-out: CAv3.2 IC50 Inact.
[7] = closed state, read-out: CAv1.2 IC50 Closed
[8] = inactivated state, read-out: CAv1.2 IC50 Inact.
[9] = closed state, read-out: CAv2.2 IC50 Closed
[10] = inactivated state, read-out: CAv2.2 IC50 Inact.
[11] = CAv3.2, closed state, read-out: CAv3.2 IC50 Closed
[12] = CAv3.2, ratio closed/inactivated IC50

Chain of T-type calcium channel (Homo sapiens, UniProt O95180) (O95180 whole entry): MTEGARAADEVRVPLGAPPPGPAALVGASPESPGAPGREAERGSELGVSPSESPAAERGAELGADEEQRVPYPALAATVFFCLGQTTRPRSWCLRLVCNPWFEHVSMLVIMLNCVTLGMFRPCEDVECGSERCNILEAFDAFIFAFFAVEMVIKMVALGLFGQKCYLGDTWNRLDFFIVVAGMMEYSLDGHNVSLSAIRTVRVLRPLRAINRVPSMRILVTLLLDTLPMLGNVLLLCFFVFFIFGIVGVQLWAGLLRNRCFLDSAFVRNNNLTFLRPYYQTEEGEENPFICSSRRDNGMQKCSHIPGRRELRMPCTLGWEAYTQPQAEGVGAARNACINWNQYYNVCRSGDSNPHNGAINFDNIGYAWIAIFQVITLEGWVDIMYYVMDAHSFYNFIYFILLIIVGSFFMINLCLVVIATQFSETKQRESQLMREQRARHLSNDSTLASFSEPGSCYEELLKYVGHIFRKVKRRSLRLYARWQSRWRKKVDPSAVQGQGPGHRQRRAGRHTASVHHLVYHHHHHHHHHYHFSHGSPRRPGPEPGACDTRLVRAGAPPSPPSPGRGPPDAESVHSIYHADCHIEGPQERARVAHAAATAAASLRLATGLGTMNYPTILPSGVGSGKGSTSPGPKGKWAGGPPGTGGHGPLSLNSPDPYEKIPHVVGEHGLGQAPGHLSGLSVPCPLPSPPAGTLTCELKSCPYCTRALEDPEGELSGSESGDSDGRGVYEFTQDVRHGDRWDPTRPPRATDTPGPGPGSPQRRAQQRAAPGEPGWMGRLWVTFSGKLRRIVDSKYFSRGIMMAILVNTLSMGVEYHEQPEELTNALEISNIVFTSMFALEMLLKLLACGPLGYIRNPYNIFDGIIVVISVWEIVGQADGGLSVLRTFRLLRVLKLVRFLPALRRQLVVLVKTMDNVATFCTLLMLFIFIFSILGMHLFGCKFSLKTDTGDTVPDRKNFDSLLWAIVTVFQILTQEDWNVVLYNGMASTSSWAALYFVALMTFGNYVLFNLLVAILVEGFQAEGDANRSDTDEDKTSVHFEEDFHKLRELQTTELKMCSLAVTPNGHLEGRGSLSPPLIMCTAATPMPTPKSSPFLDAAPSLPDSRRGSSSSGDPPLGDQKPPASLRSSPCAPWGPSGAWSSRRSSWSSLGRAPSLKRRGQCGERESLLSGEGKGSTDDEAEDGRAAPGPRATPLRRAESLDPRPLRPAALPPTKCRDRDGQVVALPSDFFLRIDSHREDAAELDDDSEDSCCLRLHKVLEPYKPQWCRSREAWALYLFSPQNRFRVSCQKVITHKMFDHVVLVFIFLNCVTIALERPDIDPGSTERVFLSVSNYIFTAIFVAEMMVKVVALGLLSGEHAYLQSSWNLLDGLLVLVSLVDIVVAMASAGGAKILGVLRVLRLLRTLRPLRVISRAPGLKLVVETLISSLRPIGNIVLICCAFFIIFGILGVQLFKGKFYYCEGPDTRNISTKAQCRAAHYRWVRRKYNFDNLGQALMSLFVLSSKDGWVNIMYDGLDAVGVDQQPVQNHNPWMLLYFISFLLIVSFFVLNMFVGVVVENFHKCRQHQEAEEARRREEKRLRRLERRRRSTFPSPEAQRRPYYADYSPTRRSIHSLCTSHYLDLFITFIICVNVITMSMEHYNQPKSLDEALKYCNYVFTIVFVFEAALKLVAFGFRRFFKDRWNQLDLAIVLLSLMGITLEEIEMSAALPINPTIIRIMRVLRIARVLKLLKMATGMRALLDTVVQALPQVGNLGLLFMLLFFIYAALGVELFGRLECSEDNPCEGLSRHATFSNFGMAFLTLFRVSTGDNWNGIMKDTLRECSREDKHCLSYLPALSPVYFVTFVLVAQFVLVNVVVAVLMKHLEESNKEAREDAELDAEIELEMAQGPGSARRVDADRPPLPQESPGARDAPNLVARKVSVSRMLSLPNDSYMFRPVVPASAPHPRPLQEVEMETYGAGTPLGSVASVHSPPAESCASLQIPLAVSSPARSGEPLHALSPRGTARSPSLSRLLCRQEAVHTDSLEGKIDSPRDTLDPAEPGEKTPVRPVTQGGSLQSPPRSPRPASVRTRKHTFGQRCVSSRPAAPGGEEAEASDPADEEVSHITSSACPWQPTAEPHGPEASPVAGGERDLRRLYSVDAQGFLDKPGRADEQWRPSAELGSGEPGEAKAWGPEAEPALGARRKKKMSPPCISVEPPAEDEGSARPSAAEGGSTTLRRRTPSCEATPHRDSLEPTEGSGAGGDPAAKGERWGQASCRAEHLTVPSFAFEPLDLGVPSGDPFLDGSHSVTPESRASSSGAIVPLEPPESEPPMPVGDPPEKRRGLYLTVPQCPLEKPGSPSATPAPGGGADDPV

Row | SMILES | IC50 [1, 6] | IC50 [2, 7] | IC50 [2, 8] | IC50 [3, 9] | IC50 [3, 10] | CAv2.2 IC50 Ratio closed/inact. ([3]; ratio closed/inact.) | IC50 [1, 11] | CAv3.2 IC50 Ratio closed/inact. ([1]; CAv3.2, ratio closed/inact.) | CAv1.2 IC50 Ratio closed/inact. ([2]; ratio closed/inact.) | IC50 [4, 7] | IC50 [4, 8] | CAv1.2 IC50 Ratio closed/inact. [4] | IC50 [5] | CAv3.2 IC50 Ratio closed/inact. [1, 12] | CAv2.2 IC50 Ratio closed/inact. ([3]; ratio closed/inactivated IC50)
1 | CC(C)(C[C@H]1C[C@H](NC(=O)[C@H]2CCCC[C@@H]2N)C1)S(=O)(=O)c1cccc(C(F)(F)F)c1 [Compound 743] | 10 µM | ≥ 10 µM | ≥ 10 µM | 3.37 µM | 1.46 µM | 2.3 |  |  |  |  |  |  |  |  | 
2 | O=C(NC[C@H]1C[C@H](S(=O)(=O)c2cccc(Cl)c2)C1)c1ccc(C(F)(F)F)cn1 [Compound 774] | 10 µM | ≥ 10 µM | 6.45 µM | 9.98 µM | 4.32 µM | 2.3 | 6.63 µM | 0.7 | 1.6 |  |  |  |  |  | 
3 | O=C(NC[C@H]1C[C@H](S(=O)(=O)c2cccc(Cl)c2)C1)c1ccc(Cl)cn1 [Compound 772] | 10 µM | ≥ 10 µM |  |  | 5.67 µM | 1.8 | ≥ 10 µM | 1 |  |  |  |  |  |  | 
4 | CC(C)S(=O)(=O)c1cc(C(F)(F)F)cnc1C(=O)NC[C@H]1C[C@H](S(=O)(=O)c2cccc(Cl)c2)C1 [Compound 770] | 10 µM | ≥ 10 µM | ≥ 10 µM | 10 µM | 2.29 µM | 4.4 | ≥ 10 µM | 1 |  |  |  |  |  |  | 
5 | CC(C)([C@H]1C[C@H](NC(=O)c2ccc(Cl)c(F)c2)C1)S(=O)(=O)c1cc(F)cc(C(F)(F)F)c1 [Compound 596] | 1.11 µM |  |  | 1.73 µM | 0.26 µM |  | 3.13 µM |  |  | 3.63 µM | 1.43 µM | 2.5 | 9.74 µM | 2.8 | 6.7
6 | CC(C)([C@H]1C[C@H](NC(=O)c2ccc(C(F)(F)F)cn2)C1)S(=O)(=O)c1cccc(C(F)(F)F)c1 [Compound 676] | 3.79 µM |  |  | 1.85 µM | 0.16 µM |  | 4.27 µM |  |  | 7.96 µM | 3.25 µM | 2.4 | 3.87 µM | 1.1 | 11.6
7 | CC(C)([C@H]1C[C@H](NS(=O)(=O)c2ccc(OC(F)(F)F)cc2)C1)S(=O)(=O)c1cccc(C(F)(F)F)c1 [Compound 669] | 2.55 µM |  |  | 7.9 µM | 0.96 µM |  | 2.65 µM |  |  | ≥ 10 µM | 3.33 µM | 3 | 2.74 µM | 1 | 8.2
8 | CC(C)([C@H]1C[C@H](NS(=O)(=O)c2ccc(C(F)(F)F)cc2Cl)C1)S(=O)(=O)c1cc(F)cc(C(F)(F)F)c1 [Compound 623] | 1.54 µM |  |  | 3.37 µM | 0.74 µM |  | ≥ 10 µM |  |  | 8.07 µM | 1.54 µM | 5.2 | 5.3 µM | 6.5 | 4.6
9 | CC(C)([C@H]1C[C@@H](CNC(=O)c2ccnc(C(F)(F)F)c2)C1)S(=O)(=O)c1cccc(C(F)(F)F)c1 [Compound 687] |  |  |  | 4.11 µM | 0.53 µM |  | 1.65 µM |  |  | ≥ 10 µM | 2.39 µM | 4.2 | 2.61 µM |  | 7.8
10 | CC(C)([C@H]1C[C@@H](NS(=O)(=O)c2ccc(Cl)c(F)c2)C1)S(=O)(=O)c1cccc(C(F)(F)F)c1 [Compound 626] | 2.58 µM |  |  | 8.45 µM | 1.1 µM |  | 3.85 µM |  |  | 9.15 µM | 5.4 µM | 1.7 | 3.77 µM | 1.5 | 7.7
11 | CC(C)([C@H]1C[C@@H](NC(=O)c2ccc(C(F)(F)F)cc2S(C)(=O)=O)C1)S(=O)(=O)c1cccc(OC(F)(F)F)c1 [Compound 643] | 7.16 µM |  |  | 10 µM | 0.47 µM |  | 8.38 µM |  |  | ≥ 10 µM | 9.25 µM | 1.1 | 4.17 µM | 1.2 | 21.3
12 | N[C@H]1CCCC[C@@H]1C(=O)NC[C@H]1C[C@H](S(=O)(=O)c2cccc(Cl)c2)C1 [Compound 779] | 10 µM | ≥ 10 µM | ≥ 10 µM | 10 µM | ≥ 10 µM | 1 |  |  |  |  |  |  |  |  | 
13 | CC(C)([C@H]1C[C@@H](NC(=O)CC2(N)CCCCC2)C1)S(=O)(=O)c1cc(F)cc(C(F)(F)F)c1 [Compound 653] | 10 µM |  |  | 10 µM | 1.36 µM |  |  |  |  |  | ≥ 10 µM |  | ≥ 10 µM |  | 7.4
14 | CC(C)(C[C@H]1C[C@@H](NC(=O)c2ccc(C(F)(F)F)nc2)C1)S(=O)(=O)c1cccc(C(F)(F)F)c1 [Compound 736] | 2.73 µM |  |  | 2.2 µM | 0.13 µM |  | 6.64 µM |  |  | ≥ 10 µM | 3.32 µM | 3 | ≥ 10 µM | 2.4 | 16.9
15 | CC(C)(C[C@H]1C[C@@H](NC(=O)c2ccc(Cl)cn2)C1)S(=O)(=O)c1cccc(C(F)(F)F)c1 [Compound 733] | 1.41 µM |  |  | 0.5 µM | 0.05 µM |  | 4.61 µM |  |  | 7.27 µM | 3.99 µM | 1.8 | 6.16 µM | 3.3 | 10
16 | O=C(NC[C@H]1C[C@H](S(=O)(=O)c2cccc(OC(F)(F)F)c2)C1)c1ccc(Cl)cn1 [Compound 693] | 2.77 µM |  |  | 1.77 µM | 0.34 µM |  | 7.95 µM |  |  | ≥ 10 µM | 6.64 µM | 1.5 | ≥ 10 µM | 2.9 | 5.2
17 | N[C@@H]1CCCC[C@@H]1C(=O)NC[C@H]1C[C@H](S(=O)(=O)c2cccc(Cl)c2)C1 [Compound 780] |  | ≥ 10 µM | ≥ 10 µM | 10 µM | ≥ 10 µM | 1 | ≥ 10 µM |  |  |  |  |  |  |  | 
18 | O=C(NC[C@H]1C[C@H](S(=O)(=O)c2cccc(OC(F)(F)F)c2)C1)c1cnc(C(F)(F)F)nc1 [Compound 696] | 6.35 µM |  |  | 7.07 µM | 0.94 µM |  | 9.92 µM |  |  | ≥ 10 µM | 8.33 µM | 1.2 | ≥ 10 µM | 1.6 | 7.5

From patent US20120245137A1 (Zalicus Pharmaceuticals Ltd., priority 2009, published 2012)
